Results from article doi:10.1101/2024.09.09.611999v1 (biorxiv, 2024).
Substitutions are numbered along the chain they refer to. Read-outs that look alike come from different tables or passages of the source.

Key:
[1] = target: T1, overexpressed PRDX6 (Homo sapiens, UniProt P30041); test: H2O2 clearance; assay type: cell-based
T1 sequence (P30041 2-224): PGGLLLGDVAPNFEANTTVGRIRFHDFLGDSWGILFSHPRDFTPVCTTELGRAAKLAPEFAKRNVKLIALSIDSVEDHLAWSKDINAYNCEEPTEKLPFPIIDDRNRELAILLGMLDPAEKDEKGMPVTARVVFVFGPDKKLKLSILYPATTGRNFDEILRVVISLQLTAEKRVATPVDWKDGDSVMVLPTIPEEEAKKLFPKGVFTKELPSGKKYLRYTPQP

[2] = target: T2, PRDX6 with GFP tag (Homo sapiens, UniProt P30041, E210A); test: cellular microscale thermophoresis, GFP fusion
T2 sequence (P30041 2-224 E210A): T1 sequence (P30041 2-224) with E209A

[3] = target: T3, PRDX6 with GFP tag (Homo sapiens, UniProt P30041, C91A); test: cellular microscale thermophoresis, GFP fusion
T3 sequence (P30041 2-224 C91A): T1 sequence (P30041 2-224) with C90A

| IC50 ([1]; substrate H2O2) | IC50 [1] | Kd [2] | Kd [3] | SMILES |
| --- | --- | --- | --- | --- |
| 15.5 µM | – | – | – | CC(=O)N[C@@H](CS)C(=O)O [NAC, reference compound] |
| – | 49.5 µM | 14.5 µM | 10.9 µM | O=c1cc(-c2ccc(O)cc2)oc2cc(O)cc(O)c12 [apigenin, 4’,5,7-trihydroxyflavone] |
